# Several values for one entry are separate records, joined by “and”; a condition that tells them apart may be missing. Equal entries are not always repeated.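 1) Cells in 96-well plates. 2) Compound, 48 h, 5 concentrations. 3) Linear interpolation between surrounding doses. 4) Unreached endpoint = highest concentration. GI50 = concentration required for 50% inhibition of growth. The concentration for full growth arrest is given as TGI.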
# How the values were obtained:
# Test in all cases: NCI-60 cell line screen, 48 h
# [1] = tested on: 786-0 renal
# [2] = tested on: A549 NSCLC
# [3] = tested on: EKVX NSCLC
# [4] = tested on: RXF 393 renal
# [5] = tested on: SK-MEL-5 melanoma
# [6] = tested on: SW-620 colon
# [7] = tested on: U251 CNS
# [8] = tested on: SR leukemia
# [9] = tested on: BT-549 breast
# [10] = tested on: DU-145 prostate
Compound,TGI [1] [µM],TGI [2],TGI [3] [µM],TGI [4] [µM],TGI [5],TGI [6],TGI [7],TGI [8],TGI [9] [µM],TGI [10] [µM],GI50 [1] [µM],GI50 [2] [µM],GI50 [9] [µM],GI50 [3] [µM],GI50 [4] [µM],GI50 [5] [µM],GI50 [8] [µM],GI50 [6] [µM],GI50 [7] [µM],GI50 [10] [µM]
CN(C)CCNC(=O)c1cccc2nc3ccc4cccnc4c3nc12,10.9,9.65 µM,2.07,1.3,1.33 µM,4.92 µM,4.39 µM,–,–,–,–,–,–,–,–,–,–,–,–,–
COC1=CC(=O)C(Br)=CC1=O,32.9,> 100 µM,44.8,32.3,34.5 µM,54.9 µM,–,–,–,–,–,–,–,–,–,–,–,–,–,–
COC1=CC(=O)C2C(C1=O)[C@@H]1c3ccccc3OC(C)(C)[C@H]21 (some centres not stated),33.6,> 100 µM,88.1,27.1,74 µM,48 µM,> 100 µM,–,–,–,–,–,–,–,–,–,–,–,–,–
Cc1cc(C)nc(NS(=O)(=O)c2ccc(Nc3c4ccccc4nc4c(C(=O)Nc5ccc(S(=O)(=O)Nc6cc(C)on6)cc5)ccc(Cl)c34)cc2)n1,34.1,–,62.5,32.7,–,–,30.9 µM,53.8 µM,–,–,–,–,–,–,–,–,–,–,–,–
COc1ccc2c3c(c(C(=O)O)oc13)CCC2,> 100,> 100 µM,> 100,> 100,> 100 µM,> 100 µM,> 100 µM,> 100 µM,–,–,–,–,–,–,–,–,–,–,–,–
O=C(O)CNc1ccc(Cl)c(Cl)c1,92.6,> 100 µM,64.8,> 100,87.9 µM,73.9 µM,> 100 µM,–,> 100,> 100,–,–,–,–,–,–,–,–,–,–
CCCN(CCC)CCc1cc(C(C)=O)n(S(=O)(=O)c2ccc(C)cc2)c1,> 100,> 100 µM,> 100,–,> 100 µM,> 100 µM,> 100 µM,> 100 µM,–,–,–,–,–,–,–,–,–,–,–,–
O=C1NC(=O)C(=Cc2c3ccccc3cc3ccccc23)C(=O)N1,> 100,> 100 µM,–,> 100,> 100 µM,> 100 µM,> 100 µM,–,–,–,–,–,–,–,–,–,–,–,–,–
O=S(=O)(c1ccccc1)c1nccs1,> 100,> 100 µM,> 100,–,> 100 µM,> 100 µM,> 100 µM,> 100 µM,–,–,–,–,–,–,–,–,–,–,–,–
COc1cc2c(c(O)c1C)C(=O)CC(c1ccccc1)O2 (configuration not stated),> 100,> 100 µM,> 100,–,37.2 µM,> 10 µM,> 100 µM,–,–,–,–,–,–,–,–,–,–,–,–,–
Cc1cc(Br)cc(C)c1NC(=O)C(=O)C(C(=O)c1ccncc1)C1OC(=O)c2ccccc21 (configuration not stated),> 100,> 100 µM,> 100,> 100,–,> 100 µM,> 100 µM,> 100 µM,–,–,–,–,–,–,–,–,–,–,–,–
COc1cccc2c1C(=O)c1c(O)c3c(c(O)c1C2=O)C[C@@](O)(C(C)=O)C[C@@H]3OC1CC([N+]([O-])(Cc2ccccc2)Cc2ccccc2)C(O)C(C)O1 (some centres not stated),2.86,5.18 µM,3.47,2.57,2.71 µM,2.54 µM,2.48 µM,–,–,–,–,–,–,–,–,–,–,–,–,–
COc1cc(OC)cc(-c2nc3sccn3c2/C=N/N=C(N)N)c1,14.4,19.8 µM,15.9,16.7,15.2 µM,19.1 µM,11.1 µM,16.1 µM,14,–,7.71,10,6.87,8.2,7.96,8.34,8.64,10,5.2,–
O=c1nc(NC(c2ccccc2)(c2ccccc2)c2ccccc2)ccn1CCCl,32,> 100 µM,61,30.8,–,48.6 µM,28.7 µM,49.5 µM,–,–,–,–,–,–,–,–,–,–,–,–
CC(=O)O[C@@]12CO[C@@H]1C[C@H](O)[C@@]1(C)C(=O)[C@H](O)C3=C(C)[C@@H](OC(=O)[C@H](O)[C@@H](NC(=O)OC(C)(C)C)c4ccccc4)C[C@@](O)([C@@H](OC(=O)c4ccccc4)C12)C3(C)C (some centres not stated),50,50 µM and > 100 µM,–,–,9.05 µM and 14.6 µM,50 µM and > 100 µM,50 µM and > 100 µM,46.3 µM and 14.7 µM,0.0338,–,0.00549,< 0.005,–,–,–,< 0.005,< 0.005,< 0.005,< 0.005,< 0.005
Cc1c(NC(=O)CCl)c(=O)oc2c(C)c3occc(=O)c3cc12,32.4,35 µM,38.2,–,23.6 µM,30.6 µM,27.5 µM,58 µM,–,74.5,–,–,–,–,–,–,–,–,–,–
CC(N)Cc1ccc(Cl)cc1 (configuration not stated),> 100,> 100 µM,> 100,> 100,> 100 µM,> 100 µM,> 100 µM,> 100 µM,–,–,–,–,–,–,–,–,–,–,–,–
CCO/C(CCn1[nH]c(=O)c(Cl)c(Cl)c1=O)=N\NC(=O)C(=O)NN,> 100,> 100 µM,> 100,> 100,> 100 µM,> 100 µM,> 100 µM,–,–,–,–,–,–,–,–,–,–,–,–,–
CCC[CH2][Sn]([CH2]CCC)([CH2]CCC)[O]C(=O)C(OC(C)=O)c1ccccc1 (configuration not stated),0.295,0.309 µM,0.21,0.302,0.28 µM,0.273 µM,0.27 µM,–,–,–,0.157,0.143,–,0.0528,0.155,0.147,–,0.141,0.14,–
CCCCCCCCCCCC[N+](C)(C)Cc1ccccc1,6.15,5.21 µM,–,–,2.62 µM,12.1 µM,3.51 µM,5.16 µM,3.29,13.6,2.37,2.04,1.74,–,–,1.33,1.83,2.69,1.48,3.61
Cc1ccc(-c2c(C#N)[n+](=O)c3cc(F)c(F)cc3n2[O-])cc1,3.53,86 µM,38.9,8.91,28.1 µM,16.1 µM,2.94 µM,–,33.7,30.9,1.54,28.2,18.5,21.2,2.63,14.2,–,3.9,1.43,14.5

# Reference: PubChem BioAssay (NCI)
